In ChEMBL document CHEMBL4610097, “Daphnane Diterpenoids from Daphne genkwa Inhibit PI3K/Akt/mTOR Signaling and Induce Cell Cycle Arrest and Apoptosis in Human Colon Cancer Cells” (J Nat Prod, 2020):

Assays:
Format in all cases: functional, cell-based
[1] = test system: LoVo; test: Cytotoxicity against human LoVo cells after 24 hrs by MTT assay
[2] = test system: SW-620; test: Cytotoxicity against human SW620 cells after 24 hrs by MTT assay; conditions: SW-620, 24 h
[3] = test system: RKO; test: Cytotoxicity against human RKO cells after 24 hrs by MTT assay

SMILES | IC50 [1] [µM] | IC50 [2] [µM] | IC50 [3] [µM]
C=C(C)[C@@]1(O)[C@H](OC(=O)/C=C/C=C/CCCCC)[C@@H]2[C@@H]3O[C@]3(CO)[C@@H](O)[C@]3(O)C(=O)C(C)=C[C@H]3[C@@]2(O)[C@H](C)[C@H]1OC(C)=O | > 10 | > 10 | > 10
C=C(C)[C@@]1(O)[C@H](OC(=O)/C=C/C=C/C=C/CCC)[C@@H]2[C@@H]3O[C@]3(CO)[C@@H](O)[C@]3(O)C(=O)C(C)=C[C@H]3[C@@]2(O)[C@H](C)[C@H]1OC(C)=O | > 10 | > 10 | > 10
C=C(C)[C@@]12O[C@@]3(c4ccccc4)O[C@@H]1[C@@H]1[C@@H]4O[C@]4(CO)[C@@H](O)[C@]4(O)C(=O)C(C)=C[C@H]4[C@@]1(O3)[C@H](C)[C@H]2OC(C)=O | > 10 | > 10 | > 10
C=C(C)[C@@]12O[C@@]3(c4ccccc4)O[C@@H]1[C@@H]1[C@@H]4O[C@]4(CO)[C@@H](O)[C@]4(O)C(=O)C(C)=C[C@H]4[C@@]1(O3)[C@H](C)[C@H]2OC(=O)C(C)C | > 10 | > 10 | > 10
C=C(C)[C@@]1(O)[C@H](OC(=O)/C=C/C=C/CCCCC)[C@@H]2[C@H](O)[C@@](O)(CO)[C@@H](O)[C@]3(O)C(=O)C(C)=C[C@H]3[C@@]2(O)[C@H](C)[C@H]1OC(C)=O | > 10 | > 10 | > 10
C=C(C)[C@@]12O[C@@]3(/C=C/C=C\CCCCC)O[C@@H]1[C@@H]1[C@@H]4O[C@]4(CO)[C@@H](O)[C@]4(O)C(=O)C(C)=C[C@H]4[C@@]1(O3)[C@H](C)[C@H]2OC(C)=O | > 10 | > 10 | > 10
C=C(C)[C@@]1(O)[C@H](OC(=O)/C=C/C=C/CCCCC)[C@@H]2[C@@H]3O[C@]3(CO)[C@@H](O)[C@]3(O)C(=O)C(C)=C[C@H]3[C@@]2(O)[C@H](C)[C@H]1OC(=O)c1ccccc1 [YUANHUAOATE E] | > 10 | > 10 | > 10
C=C(C)[C@@]12O[C@@]3(/C=C/C=C/CCCCC)O[C@@H]1[C@@H]1[C@@H]4O[C@]4(CO)[C@@H](O)[C@]4(O)C(=O)C(C)=C[C@H]4[C@@]1(O3)[C@H](C)[C@H]2OC(=O)c1ccccc1 [GNIDILATIDIN] | – | 4.3 | 6.5
C=C(C)[C@@]12O[C@@]3(c4ccccc4)O[C@@H]1[C@@H]1[C@H](O)[C@@](O)(CO)[C@@H](O)[C@]4(O)C(=O)C(C)=C[C@H]4[C@@]1(O3)[C@H](C)[C@H]2OC(=O)c1ccccc1 | > 10 | > 10 | > 10
C=C(C)[C@@]12O[C@@]3(/C=C/C=C/C=C\CCC)O[C@@H]1[C@@H]1[C@@H]4O[C@]4(CO)[C@@H](O)[C@]4(O)C(=O)C(C)=C[C@H]4[C@@]1(O3)[C@H](C)[C@H]2OC(=O)c1ccccc1 | > 10 | > 10 | > 10
C=C(C)[C@@]12O[C@@]3(/C=C/C=C/CCCCC)O[C@@H]1[C@@H]1[C@@H]4O[C@]4(CO)[C@@H](O)[C@]4(O)C(=O)C(C)=C[C@H]4[C@@]1(O3)[C@H](C)[C@H]2OC(=O)CCC | – | 5.2 | 9.7
C=C(C)[C@@]1(O)[C@H](OC(=O)/C=C/C=C/CCCCC)[C@@H]2[C@H](O)[C@@](O)(CO)[C@@H](O)[C@]3(O)C(=O)C(C)=C[C@H]3[C@@]2(O)[C@H](C)[C@H]1OC(=O)c1ccccc1 | > 10 | > 10 | > 10
C=C(C)[C@@]12O[C@@]3(c4ccccc4)O[C@@H]1[C@@H]1[C@@H]4O[C@]4(CO)[C@@H](O)[C@]4(O)C(=O)C(C)=C[C@H]4[C@@]1(O3)[C@H](C)[C@H]2OC(=O)c1ccccc1 | > 10 | > 10 | > 10
C=C(C)[C@@]12O[C@@]3(/C=C/C=C/CCCCC)O[C@@H]1[C@@H]1[C@@H]4O[C@]4(CO)[C@@H](O)[C@]4(O)C(=O)C(C)=C[C@H]4[C@@]1(O3)[C@H](C)[C@H]2OC(=O)CC | > 10 | > 10 | > 10
C=C(C)[C@@]1(O)[C@H](O)[C@@H]2[C@@H]3O[C@]3(CO)[C@@H](O)[C@]3(O)C(=O)C(C)=C[C@H]3[C@@]2(O)[C@H](C)[C@H]1OC(C)=O | > 10 | > 10 | > 10
C=C(C)[C@@]12O[C@@]3(/C=C/C=C/C=C\CCC)O[C@@H]1[C@@H]1[C@@H]4O[C@]4(CO)[C@@H](O)[C@]4(O)C(=O)C(C)=C[C@H]4[C@@]1(O3)[C@H](C)[C@H]2OC(C)=O | > 10 | > 10 | > 10
C=C(C)[C@@]12O[C@@]3(c4ccccc4)O[C@@H]1[C@@H]1[C@@H]4O[C@]4(CO)[C@@H](O)[C@]4(O)C(=O)C(C)=C[C@H]4[C@@]1(O3)[C@H](C)[C@H]2OC(=O)CCC | > 10 | > 10 | > 10
C=C(C)[C@@]12O[C@@]3(/C=C/C=C/CCCCC)O[C@@H]1[C@@H]1[C@@H]4O[C@]4(CO)[C@@H](O)[C@]4(O)C(=O)C(C)=C[C@H]4[C@@]1(O3)[C@H](C)[C@H]2O | > 10 | > 10 | > 10
C=C(C)[C@@]12O[C@@]3(/C=C/C=C/CCCCC)O[C@@H]1[C@@H]1[C@@H]4O[C@]4(CO)[C@@H](O)[C@]4(O)C(=O)C(C)=C[C@H]4[C@@]1(O3)[C@H](C)[C@H]2OC(=O)C(C)C | > 10 | > 10 | > 10
C=C(C)[C@@]12O[C@@]3(/C=C/C=C\CCCCC)O[C@@H]1[C@@H]1[C@@H]4O[C@]4(CO)[C@@H](O)[C@]4(O)C(=O)C(C)=C[C@H]4[C@@]1(O3)[C@H](C)[C@H]2OC(=O)c1ccccc1 | – | 8.5 | > 10
O=c1[nH]cc(F)c(=O)[nH]1 [FLUOROURACIL] | – | 10 | > 10
C=C(C)[C@@]12O[C@@]3(/C=C/C=C/CCCCC)O[C@@H]1[C@@H]1[C@@H]4O[C@]4(CO)[C@@H](O)[C@]4(O)C(=O)C(C)=C[C@H]4[C@@]1(O3)[C@H](C)[C@H]2OC(C)=O [YUANHUADINE] | > 10 | > 10 | > 10
